How the values were obtained:
surinam grass = experiment: Test C pre-/postemergence herbicide test; assay type: in vivo, Brachiaria decumbens; details: Preemergence
Summary of the method: (§1)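 Herbicidal effect was judged by eye 13 to 15 days after treatment in the greenhouse, using a 0–100 scale against controls. Chemicals in a non-phytotoxic solvent with surfactant were sprayed onto planted loam/sand soil or onto plants 2 to 18 cm tall in a peat-based growing medium.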

foxtail, green [1] = experiment: Test C pre-/postemergence herbicide test; assay type: in vivo, Setaria viridis; details: Preemergence; for Foxtail, Green plant response rating: 31 g ai/ha
Summary of the method: as §1

goosegrass = experiment: Test C pre-/postemergence herbicide test; assay type: in vivo, Eleusine indica; details: Preemergence; for Goosegrass plant response rating: 31 g ai/ha
Summary of the method: as §1

bromegrass, downy = experiment: Test C pre-/postemergence herbicide test; assay type: in vivo, Bromus tectorum; details: Preemergence; for Bromegrass, Downy plant response rating: 31 g ai/ha
Summary of the method: as §1

nightshade = experiment: Test C pre-/postemergence herbicide test; assay type: in vivo, Solanum ptycanthum; details: Preemergence
Summary of the method: as §1

cocklebur = experiment: Test C pre-/postemergence herbicide test; assay type: in vivo, Xanthium strumarium; details: Preemergence; for Cocklebur plant response rating: 31 g ai/ha
Summary of the method: as §1

cupgrass, woolly = experiment: Test C pre-/postemergence herbicide test; assay type: in vivo, Eriochloa villosa; details: Preemergence; for Cupgrass, Woolly plant response rating: 31 g ai/ha
Summary of the method: as §1

bermudagrass = experiment: Test C pre-/postemergence herbicide test; assay type: in vivo, Cynodon dactylon; details: Preemergence; for Bermudagrass plant response rating: 31 g ai/ha
Summary of the method: as §1

sunflower = experiment: Test C pre-/postemergence herbicide test; assay type: in vivo, Helianthus annuus; details: Preemergence
Summary of the method: as §1

Russian thistle = experiment: Test C pre-/postemergence herbicide test; assay type: in vivo, Salsola kali; details: Preemergence
Summary of the method: as §1

foxtail, green [2] = experiment: Test E preemergence herbicide test; assay type: in vivo, Setaria viridis; design: key: 0 = no effect, 100 = complete control
Description: Seeds of plant species selected from corn (Zea mays), soybean (Glycine max), velvetleaf (Abutilon theophrasti), lambsquarters (Chenopodium album), wild poinsettia (Euphorbia heterophylla), pigweed, palmer (palmer pigweed, Amaranthus palmeri), waterhemp (common waterhemp, Amaranthus rudis), surinam grass (Brachiaria decumbens), crabgrass, large (large crabgrass, Digitaria sanguinalis), crabgrass, Brazil (Brazilian crabgrass, Digitaria horizontalis), panicum, fall (fall panicum, Panicum dichotomiflorum), foxtail, giant (giant foxtail, Setaria faberii), foxtail, green (green foxtail, Setaria viridis), goosegrass (Eleusine indica), johnsongrass (Sorghum halepense), ragweed (common ragweed, Ambrosia elatior), barnyardgrass (Echinochloa crus-galli), sandbur (southern sandbur, Cenchrus echinatus), arrowleaf […] rhombifolia), ryegrass, Italian (Italian ryegrass, Lolium multiflorum), dayflower, VA (Virginia dayflower, Commelina virginica), field bindweed (Convolvulus arvensis), morningglory (Ipomoea coccinea), nightshade (eastern black nightshade, Solanum ptycanthum), kochia (Kochia scoparia), nutsedge, yellow (yellow nutsedge, Cyperus esculentus), cocklebur (common cocklebur, Xanthium strumarium), smartweed (ladysthumb smartweed, Polygonum Persicaria) and beggarticks (hairy beggarticks, Bidens pilosa), were planted into a silt loam soil and treated preemergence with test chemicals formulated in a non-phytotoxic solvent mixture which included a surfactant. Treated plants and controls were maintained in a greenhouse for 21 days, after which time all species were compared to controls and visually evaluated. Plant response ratings, summarized in Table E, are based on a scale of 0 to 100 where 0 is no effect and 100 is complete control. A dash (-) response means no test result.

[3] = 125 g ai/ha, scale 0 to 100 (0 no effect, 100 complete control)
[4] = scale 0 to 100 (0 no effect, 100 complete control)
[5] = 250 g ai/ha, scale 0 to 100 (0 no effect, 100 complete control)
[6] = 31 g ai/ha, scale 0 to 100, 0 is no effect and 100 is complete control
[7] = scale 0 to 100, 0 is no effect and 100 is complete control

Row | Structure (SMILES) | Plant response rating, Surinam Grass (surinam grass; 62 g ai/ha, scale 0 to 100) | Plant response rating, Surinam Grass (surinam grass; [3]) | Plant response rating, Foxtail, Green (foxtail, green [1]; 62 g ai/ha, scale 0 to 100) | Plant response rating, Foxtail, Green (foxtail, green [1]; [3]) | Plant response rating, Foxtail, Green (foxtail, green [1]; [5]) | Plant response rating, Goosegrass (goosegrass; 62 g ai/ha, scale 0 to 100) | Plant response rating, Goosegrass (goosegrass; [3]) | Plant response rating, Bromegrass, Downy (bromegrass, downy; 62 g ai/ha, scale 0 to 100) | Plant response rating, Bromegrass, Downy (bromegrass, downy; [3]) | Plant response rating, Bromegrass, Downy (bromegrass, downy; [5]) | Plant response rating, Nightshade (nightshade; 62 g ai/ha, scale 0 to 100) | Plant response rating, Nightshade (nightshade; [3]) | Plant response rating, Cupgrass, Woolly (cupgrass, woolly; 62 g ai/ha, scale 0 to 100) | Plant response rating, Cupgrass, Woolly (cupgrass, woolly; [3]) | Plant response rating, Cupgrass, Woolly (cupgrass, woolly; [5]) | Plant response rating, Bermudagrass (bermudagrass; 62 g ai/ha, scale 0 to 100) | Plant response rating, Foxtail, Green (foxtail, green [2]; 31 g ai/ha) | Plant response rating, Foxtail, Green (foxtail, green [2]; 62 g ai/ha) | Plant response rating, Foxtail, Green (foxtail, green [2]; 125 g ai/ha) | Plant response rating, Foxtail, Green (foxtail, green [2]; 250 g ai/ha) | other results
1 | O=C1NCC(c2ccc(F)cc2)C1C(=O)Nc1ccccc1F (racemic) [Compound 16] | 95 | 98 | 35 | 80 | 90 | 0 | 0 | 5 | 30 | 35 | 0 | 0 | 95 | 95 | 95 | 0 | 0 | 10 | 25 | 95 | Foxtail, Green plant response rating (foxtail, green [1]; [4]): 5; Goosegrass plant response rating (goosegrass; [4]): 0; Bromegrass, Downy plant response rating (bromegrass, downy; [4]): 0; Cocklebur plant response rating (cocklebur; [4]): 0; Plant response rating, Cocklebur (cocklebur; 62 g ai/ha, scale 0 to 100): 0; Plant response rating, Cocklebur (cocklebur; [3]): 0; Plant response rating, Cocklebur (cocklebur; [5]): 0; Cupgrass, Woolly plant response rating (cupgrass, woolly; [4]): 55; Bermudagrass plant response rating (bermudagrass; [4]): 0; Plant response rating, Bermudagrass (bermudagrass; [3]): 90; Plant response rating, Bermudagrass (bermudagrass; [5]): 95; Plant response rating Sunflower (sunflower; 62 g ai/ha, scale 0 to 100): 0; Plant response rating Sunflower (sunflower; [3]): 0; Plant response rating, Russian Thistle (Russian thistle; 62 g ai/ha, scale 0 to 100): 0; Plant response rating, Russian Thistle (Russian thistle; [3]): 0; Plant response rating, Foxtail, Green (foxtail, green [2]; 16 g ai/ha): 0
2 | O=C1NCC(c2cccc(Br)c2)C1C(=O)Nc1ccccc1F (centres unmarked) [Compound 66] | 0 | 75 | 80 | 90 | 98 | 5 | 10 | 0 | 0 | 5 | 0 | 0 | 75 | 80 | 85 | 0 | 0 | 0 | 35 | 60 | Surinam Grass plant response rating (surinam grass; [6]): 0; Foxtail, Green plant response rating (foxtail, green [1]; [7]): 50; Goosegrass plant response rating (goosegrass; [7]): 5; Bromegrass, Downy plant response rating (bromegrass, downy; [7]): 0; Nightshade plant response rating (nightshade; [6]): 0; Cocklebur plant response rating (cocklebur; [7]): 0; Cupgrass, Woolly plant response rating (cupgrass, woolly; [7]): 10; Bermudagrass plant response rating (bermudagrass; [7]): 0; Plant response rating, Bermudagrass (bermudagrass; [3]): 0; Plant response rating, Bermudagrass (bermudagrass; [5]): 0; Sunflower plant response rating (sunflower; [6]): 0; Plant response rating Sunflower (sunflower; 62 g ai/ha, scale 0 to 100): 0; Plant response rating Sunflower (sunflower; [3]): 0; Russian Thistle plant response rating (Russian thistle; [6]): 0; Plant response rating, Russian Thistle (Russian thistle; 62 g ai/ha, scale 0 to 100): 0; Plant response rating, Russian Thistle (Russian thistle; [3]): 0; Plant response rating, Foxtail, Green (foxtail, green [2]; 16 g ai/ha): 0
3 | O=C1NCC(c2ccc(C(F)(F)F)cc2)C1C(=O)Nc1ccc(F)c(F)c1F (centres unmarked) [Compound 232] |  |  |  |  |  |  |  |  |  |  |  |  |  |  |  |  | 80 | 95 | 98 | 98 | 

From patent US10294202B2, “Pyrrolidinones as herbicides” (FMC Corporation, priority 2013, dated 2019)
